Molecules are shown by their SMILES. Converted amounts (≈) assume the structure as drawn. Like-named read-outs stand apart in the source and are kept apart here. Where only a bound is given, the exact number is not on record here.

The nature of data set [1]: Compound distribution in plasma and ocular tissues after single ocular dose in Dutch belted rabbits. The data set is classed as in vivo. The note with it: eye drops 1 mg/mL (0.05 mg/eye), 0.5 h, 4 h or 8 h post-dose. From the text:
Age-related macular degeneration and diabetic retinopathy are associated with neovascularization in the posterior eye segment Due to the corneal and conjunctival barrier, one of the main problems with topical eye drops used to treat the posterior eye segment disorders is the low-efficiency delivery of the drug to the posterior eye segment. Therefore, it is important to measure the distribution of the compound in an ophthalmic formulation in several major ocular tissues. […] Dutch belted rabbits were used in this experiment. […]
In this experiment, male Dutch belted rabbits weighed 1.5-2.5 kg were purchased from Pizhou Dongfang Breeding Co., Ltd. Any operation on the laboratory animals in this experiment was in compliance with the relevant SOP requirements of the experimental operation of 3D BioOptima, Suzhou, China, and had been approved by the Institutional Animal Care and Use Committee (IACUC) of 3D BioOptima. […] The prepared dose formulations were freshly prepared on the day of administration, samples were retained and the actual concentration of the dose formulation was determined.
On the day of the experiment, animals were administrated at 1 mg/mL (0.05 mg/eye, 50 μL/eye). […] The concentration of each analyte in the rabbit ocular tissues and plasma obtained in this experiment was determined by LC-MS/MS. […]

For data set [2] the following is noted: statement in the summary; cited from earlier work.
The next data set has as its target KDR (VEGFR2) (Homo sapiens (Human), UniProt P35968). Description: Kinase inhibition, Mobility Shift Assay (VEGFR2). The data set is classed as biochemical. An outline of the steps: (§1)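 Mobility shift assay: each kinase preincubated 10 min at room temperature with compound, then reacted with FAM-labeled peptide, MgCl2 and ATP at 28° C. for varying times. Substrate-to-product conversion read on Caliper; % inhibition normalised to no-kinase and DMSO controls, and IC50 fitted.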

A further data set concerns the target EGFR (Homo sapiens (Human), UniProt P00533). The data set can be described thus: Kinase inhibition, Mobility Shift Assay (EGFR). The data set is classed as biochemical. An outline of the steps: as §1
The target in a further data set is FLT1 (VEGFR1) (Homo sapiens (Human), UniProt P17948). The data set can be described thus: Kinase inhibition, Mobility Shift Assay (VEGFR1). The data set is classed as biochemical. In a few lines:
as §1

A further data set has as its target FLT4 (VEGFR3) (Homo sapiens (Human), UniProt P35916). The data set can be described thus: Kinase inhibition, Mobility Shift Assay (VEGFR3). The data set is classed as biochemical. In a few lines: as §1
In the next data set the test system is melanin. The data set can be described thus: Binding capacity of compounds to melanin. The data set is classed as in vitro ADME. To be noted: Sepia officinalis (cuttlefish), melanin suspension (1 mg/mL); 1 mg/mL melanin suspension in PBS pH 7.4, 2 μM compound, 2 h at 37° C.; read-out: Fu % (percentage of free drug, not bound to melanin). In a few lines:
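Compound at 2 μM final incubated with 1 mg/mL Sepia melanin suspension in PBS pH 7.4 for 2 h at 37 °C with shaking; blank control in PBS with 0.1% BSA. Supernatant concentrations measured by LC-MS/MS; bound fraction from melanin versus control samples, free fraction as 100 − Fb.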

Data set [3] in a line: Thermodynamic solubility assay. To be noted: aqueous buffer, pH 2, aqueous buffer, thermodynamic from solid.
Procedure: (§2) After sonication for 10 min, fix them on a shaker and shaking for 8 h at room temperature. After shaking, sonicate for 10 min and centrifuge for 15 min at 13,000 rpm. Pipette 0.1 mL of supernatant into a new tube, shake and rinse it with 5 mL, and discard the liquid. Transfer 0.5 mL of the supernatant again to a new tube, centrifuge it for 15 min at 13,000 rpm, then collect the supernatant (if necessary, dilute with water) and analyze it by LC-MS.
(§3) The sample concentrations at 3-5 points are subjected to fitting and reticle for quantification.
For data set [4] the following is noted: pH 2.
Procedure: as §2, §3

FLT4 (VEGFR3), sequence (P35916 25-1363): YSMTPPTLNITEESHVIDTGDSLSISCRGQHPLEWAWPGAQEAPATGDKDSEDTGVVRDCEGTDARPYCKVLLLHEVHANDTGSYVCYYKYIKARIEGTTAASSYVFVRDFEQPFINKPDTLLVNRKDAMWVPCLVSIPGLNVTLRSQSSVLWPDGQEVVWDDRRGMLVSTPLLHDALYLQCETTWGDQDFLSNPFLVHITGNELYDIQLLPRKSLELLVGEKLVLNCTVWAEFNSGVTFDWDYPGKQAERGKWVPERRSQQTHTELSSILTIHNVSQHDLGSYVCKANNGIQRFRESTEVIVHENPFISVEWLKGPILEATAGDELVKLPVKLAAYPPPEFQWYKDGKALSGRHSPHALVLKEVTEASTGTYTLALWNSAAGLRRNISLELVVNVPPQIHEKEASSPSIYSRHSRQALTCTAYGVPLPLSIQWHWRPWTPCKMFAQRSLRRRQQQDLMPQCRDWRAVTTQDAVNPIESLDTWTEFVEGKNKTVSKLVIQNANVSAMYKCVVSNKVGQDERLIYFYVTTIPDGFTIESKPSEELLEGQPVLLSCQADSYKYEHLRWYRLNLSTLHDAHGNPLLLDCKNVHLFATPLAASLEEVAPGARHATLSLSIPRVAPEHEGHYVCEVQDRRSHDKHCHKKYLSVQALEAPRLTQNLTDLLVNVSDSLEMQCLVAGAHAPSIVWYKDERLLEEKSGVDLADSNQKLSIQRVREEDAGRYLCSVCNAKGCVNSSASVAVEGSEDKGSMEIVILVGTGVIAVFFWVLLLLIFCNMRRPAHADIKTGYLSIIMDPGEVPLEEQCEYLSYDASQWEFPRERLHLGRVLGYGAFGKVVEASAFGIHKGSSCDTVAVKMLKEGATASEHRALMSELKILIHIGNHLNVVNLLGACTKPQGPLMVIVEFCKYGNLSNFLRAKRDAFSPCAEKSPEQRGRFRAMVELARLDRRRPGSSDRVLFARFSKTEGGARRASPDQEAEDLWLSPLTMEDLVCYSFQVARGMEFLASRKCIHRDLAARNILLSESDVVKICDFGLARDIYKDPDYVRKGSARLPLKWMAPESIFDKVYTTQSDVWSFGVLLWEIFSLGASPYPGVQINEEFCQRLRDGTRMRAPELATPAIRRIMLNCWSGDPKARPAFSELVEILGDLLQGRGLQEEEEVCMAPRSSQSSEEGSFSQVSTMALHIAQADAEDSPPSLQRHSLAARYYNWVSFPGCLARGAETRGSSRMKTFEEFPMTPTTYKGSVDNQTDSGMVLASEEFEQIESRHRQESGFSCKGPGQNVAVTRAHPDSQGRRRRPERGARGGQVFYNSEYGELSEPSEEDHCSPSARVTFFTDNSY
KDR (VEGFR2), sequence (P35968 790-1356): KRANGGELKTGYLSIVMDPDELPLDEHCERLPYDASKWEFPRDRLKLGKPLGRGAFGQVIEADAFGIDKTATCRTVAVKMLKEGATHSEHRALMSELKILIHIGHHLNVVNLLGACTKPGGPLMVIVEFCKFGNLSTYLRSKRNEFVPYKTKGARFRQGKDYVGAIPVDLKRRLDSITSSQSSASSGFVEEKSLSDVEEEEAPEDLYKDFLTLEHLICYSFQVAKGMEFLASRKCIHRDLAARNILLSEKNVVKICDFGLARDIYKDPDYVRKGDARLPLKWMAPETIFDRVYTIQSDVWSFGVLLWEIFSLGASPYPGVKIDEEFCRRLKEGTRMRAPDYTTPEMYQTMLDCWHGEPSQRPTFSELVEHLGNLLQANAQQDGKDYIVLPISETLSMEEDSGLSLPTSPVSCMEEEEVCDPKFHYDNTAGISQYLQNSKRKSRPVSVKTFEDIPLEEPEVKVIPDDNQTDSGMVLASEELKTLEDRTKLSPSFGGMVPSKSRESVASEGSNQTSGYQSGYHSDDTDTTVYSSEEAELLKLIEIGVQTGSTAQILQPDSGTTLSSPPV
EGFR, sequence (P00533 25-1210): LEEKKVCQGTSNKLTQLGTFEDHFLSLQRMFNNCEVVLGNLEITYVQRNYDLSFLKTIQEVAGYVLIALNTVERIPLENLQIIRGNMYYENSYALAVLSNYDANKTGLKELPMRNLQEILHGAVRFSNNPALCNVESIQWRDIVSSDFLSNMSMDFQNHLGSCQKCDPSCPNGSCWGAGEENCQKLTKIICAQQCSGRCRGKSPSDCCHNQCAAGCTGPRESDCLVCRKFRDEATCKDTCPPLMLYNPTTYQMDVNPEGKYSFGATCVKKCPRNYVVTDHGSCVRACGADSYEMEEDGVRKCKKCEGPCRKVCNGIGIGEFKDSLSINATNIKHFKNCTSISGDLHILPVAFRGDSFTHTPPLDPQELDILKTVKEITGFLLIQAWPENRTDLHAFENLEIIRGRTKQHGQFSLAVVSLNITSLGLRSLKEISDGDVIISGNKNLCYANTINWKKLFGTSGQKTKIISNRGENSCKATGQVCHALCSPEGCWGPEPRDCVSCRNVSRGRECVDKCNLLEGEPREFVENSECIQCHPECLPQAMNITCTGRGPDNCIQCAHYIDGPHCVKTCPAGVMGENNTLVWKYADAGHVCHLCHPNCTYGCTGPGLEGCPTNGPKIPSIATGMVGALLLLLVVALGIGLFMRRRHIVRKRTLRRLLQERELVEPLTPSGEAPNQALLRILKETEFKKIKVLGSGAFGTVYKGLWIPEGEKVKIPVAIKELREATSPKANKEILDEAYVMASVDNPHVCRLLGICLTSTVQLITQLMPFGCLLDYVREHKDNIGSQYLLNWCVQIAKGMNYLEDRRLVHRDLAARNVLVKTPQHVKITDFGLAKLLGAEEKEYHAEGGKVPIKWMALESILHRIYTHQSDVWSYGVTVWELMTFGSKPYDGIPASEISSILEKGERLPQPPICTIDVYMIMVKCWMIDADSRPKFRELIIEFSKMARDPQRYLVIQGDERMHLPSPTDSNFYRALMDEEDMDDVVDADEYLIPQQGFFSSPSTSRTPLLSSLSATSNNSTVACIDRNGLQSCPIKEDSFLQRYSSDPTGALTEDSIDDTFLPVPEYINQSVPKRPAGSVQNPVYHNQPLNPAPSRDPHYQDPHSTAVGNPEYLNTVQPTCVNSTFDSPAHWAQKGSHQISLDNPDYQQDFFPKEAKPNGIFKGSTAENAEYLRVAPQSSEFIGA
FLT1 (VEGFR1), sequence (P17948 27-1338): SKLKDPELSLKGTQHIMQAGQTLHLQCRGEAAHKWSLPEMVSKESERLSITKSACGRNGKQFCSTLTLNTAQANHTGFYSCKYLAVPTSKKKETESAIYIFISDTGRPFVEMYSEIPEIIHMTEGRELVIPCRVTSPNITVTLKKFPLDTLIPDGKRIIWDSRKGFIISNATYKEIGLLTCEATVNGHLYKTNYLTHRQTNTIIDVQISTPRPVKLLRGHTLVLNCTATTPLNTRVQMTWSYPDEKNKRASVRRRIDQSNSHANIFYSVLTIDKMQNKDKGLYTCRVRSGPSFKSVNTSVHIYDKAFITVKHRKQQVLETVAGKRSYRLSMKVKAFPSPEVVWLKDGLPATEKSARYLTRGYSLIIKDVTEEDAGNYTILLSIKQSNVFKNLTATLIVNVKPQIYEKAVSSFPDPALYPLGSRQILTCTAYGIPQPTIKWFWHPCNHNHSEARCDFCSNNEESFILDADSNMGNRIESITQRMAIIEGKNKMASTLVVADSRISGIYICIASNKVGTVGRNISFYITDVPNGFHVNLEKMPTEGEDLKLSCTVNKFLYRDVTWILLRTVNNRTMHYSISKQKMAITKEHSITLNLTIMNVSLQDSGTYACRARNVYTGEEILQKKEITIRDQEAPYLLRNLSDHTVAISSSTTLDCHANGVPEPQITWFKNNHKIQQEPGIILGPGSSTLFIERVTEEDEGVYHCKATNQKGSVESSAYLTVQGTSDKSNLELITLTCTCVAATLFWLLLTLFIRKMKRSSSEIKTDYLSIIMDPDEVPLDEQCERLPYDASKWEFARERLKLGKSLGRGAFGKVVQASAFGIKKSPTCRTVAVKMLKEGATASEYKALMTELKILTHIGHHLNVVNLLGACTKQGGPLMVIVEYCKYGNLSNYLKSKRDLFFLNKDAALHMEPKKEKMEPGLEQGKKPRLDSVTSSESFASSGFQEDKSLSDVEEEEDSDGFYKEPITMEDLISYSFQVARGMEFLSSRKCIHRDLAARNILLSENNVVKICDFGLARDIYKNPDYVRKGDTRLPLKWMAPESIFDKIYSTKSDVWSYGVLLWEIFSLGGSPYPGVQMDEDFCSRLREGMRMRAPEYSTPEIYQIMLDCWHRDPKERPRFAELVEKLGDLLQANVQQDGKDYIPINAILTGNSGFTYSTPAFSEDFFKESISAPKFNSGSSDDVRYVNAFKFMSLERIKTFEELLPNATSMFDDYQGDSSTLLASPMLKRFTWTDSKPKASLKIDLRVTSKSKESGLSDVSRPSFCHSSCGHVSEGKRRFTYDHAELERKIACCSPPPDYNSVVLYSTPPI

On to `CNC(=O)c1ccccc1Sc1ccc2c(/C=C/c3ccccn3)n[nH]c2c1` [Axitinib], for which the “drug concentration in retina” value in data set [1] is on record as “below the lower limit of quantitation”; in data set [1] (listed as axitinib), “below BLOQ”. Also, the solubility in data set [2] is reported as less than 2 micrograms/milliliter.
For `CNC(=O)c1ccccc1Sc1ccc2c(/C=C/c3ccc(OCC4CCCN4)cn3)n[nH]c2c1` (centres unmarked) [Compound I-14, N-methyl-2-({3-[(E)-2-{5-[(pyrrolidin-2-yl)methoxy]pyridin-2-yl}vinyl]-1H-indazol-6-yl}thio)benzamide], the IC50 at KDR (VEGFR2) is 1 to 10 nM; on EGFR, 6000 to 60000 nM; at FLT1 (VEGFR1) it was 1 to 10 nM; on FLT4 (VEGFR3) it was 1 to 10 nM. Besides, the fraction unbound at 2 h, 2 μM in the data set with melanin is 0.01 to 0.05. The compound further yielded a solubility at 8 h in [3] of 46.8 µg/mL (≈ 96.4 µM).
With `CNC(=O)c1ccccc1Sc1ccc2c(/C=C/c3ccccn3)ncn2c1` [Compound I-26, N-methyl-2-({1-[(E)-2-(pyridin-2-yl)vinyl]imidazo[1,5-a]pyridin-6-yl}thio)benzamide], the IC50 was more than 100 nM at KDR (VEGFR2), more than 60000 nM on EGFR, more than 100 nM on FLT1 (VEGFR1) and more than 100 nM at FLT4 (VEGFR3). In addition, the “solubility” value in [4] was determined as 142.0 µg/mL (≈ 367 µM).

The values are drawn from patent US20260049071A1, “PROTEIN TYROSINE KINASE INHIBITOR AND MEDICAL USE THEREOF” (BEYANG THERAPEUTICS CO., LTD., priority 2022, published 2026).
